Experimental data from PubChem BioAssay (NCI).
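Tested at 5 concentrations; 48 h exposure; 96-well plates; endpoints linearly interpolated, else capped at highest concentration. Here, GI50 denotes the concentration required for 50% inhibition of growth. TGI marks complete inhibition of growth.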

Key:
Assay in all cases: inhibition of tumour cell growth, NCI panel, 48 h
SK-MEL-5 melanoma = tested on: SK-MEL-5 melanoma
EKVX NSCLC = tested on: EKVX NSCLC
UO-31 renal = tested on: UO-31 renal
HS 578T breast = tested on: HS 578T breast
IGROV1 ovarian = tested on: IGROV1 ovarian
SNB-19 CNS = tested on: SNB-19 CNS
MDA-MB-435 = tested on: MDA-MB-435
HCT-116 colon = tested on: HCT-116 colon
HCT-15 colon = tested on: HCT-15 colon
BT-549 breast = tested on: BT-549 breast
SF-539 CNS = tested on: SF-539 CNS
HOP-62 NSCLC = tested on: HOP-62 NSCLC
NCI-H522 lung = tested on: NCI-H522 lung
SK-MEL-2 melanoma = tested on: SK-MEL-2 melanoma
MCF7 breast = tested on: MCF7 breast
NCI-H226 lung = tested on: NCI-H226 lung
SF-295 CNS = tested on: SF-295 CNS
SK-OV-3 ovarian = tested on: SK-OV-3 ovarian
OVCAR-8 ovarian = tested on: OVCAR-8 ovarian
T-47D breast = tested on: T-47D breast
KM12 colon = tested on: KM12 colon
SW-620 colon = tested on: SW-620 colon
U251 CNS = tested on: U251 CNS
UACC-62 melanoma = tested on: UACC-62 melanoma
SK-MEL-28 melanoma = tested on: SK-MEL-28 melanoma
TK-10 renal = tested on: TK-10 renal
UACC-257 melanoma = tested on: UACC-257 melanoma
OVCAR-4 ovarian = tested on: OVCAR-4 ovarian
NCI-H23 lung = tested on: NCI-H23 lung
M14 melanoma = tested on: M14 melanoma
RXF 393 renal = tested on: RXF 393 renal
MOLT-4 leukemia = tested on: MOLT-4 leukemia
786-0 renal = tested on: 786-0 renal
A549 NSCLC = tested on: A549 NSCLC
HL-60(TB) leukemia = tested on: HL-60(TB) leukemia
CCRF-CEM leukemia = tested on: CCRF-CEM leukemia
HOP-92 NSCLC = tested on: HOP-92 NSCLC
HT29 colon = tested on: HT29 colon
OVCAR-5 ovarian = tested on: OVCAR-5 ovarian
DU-145 prostate = tested on: DU-145 prostate
SN12C renal = tested on: SN12C renal
K-562 leukemia = tested on: K-562 leukemia
ACHN renal = tested on: ACHN renal
SNB-75 CNS = tested on: SNB-75 CNS
HCC-2998 colon = tested on: HCC-2998 colon
MALME-3M melanoma = tested on: MALME-3M melanoma
LOX IMVI melanoma = tested on: LOX IMVI melanoma
PC-3 prostate = tested on: PC-3 prostate
CAKI-1 renal = tested on: CAKI-1 renal
SF-268 CNS = tested on: SF-268 CNS
COLO 205 colon = tested on: COLO 205 colon
NCI-H460 lung = tested on: NCI-H460 lung
SR leukemia = tested on: SR leukemia
MDA-MB-231 breast = tested on: MDA-MB-231 breast
RPMI-8226 leukemia = tested on: RPMI-8226 leukemia
A498 renal = tested on: A498 renal
NCI/ADR-RES ovarian = tested on: NCI/ADR-RES ovarian

CC(Nc1c(C#N)cnc2ccc(-c3cnc(N)nc3)cc12)c1ccccc1 (stereo not drawn)
GI50 (SK-MEL-5 melanoma): 1.52 µM | TGI (SK-MEL-5 melanoma): 3.09 µM | GI50 (EKVX NSCLC): 0.857 µM | TGI (EKVX NSCLC): > 23.8 µM | GI50 (UO-31 renal): 0.252 µM | TGI (UO-31 renal): 5.84 µM | GI50 (HS 578T breast): 0.422 µM | TGI (HS 578T breast): 2.84 µM | GI50 (IGROV1 ovarian): 0.374 µM | TGI (IGROV1 ovarian): 2.4 µM | GI50 (SNB-19 CNS): 1.59 µM | TGI (SNB-19 CNS): 20 µM | GI50 (MDA-MB-435): 1.67 µM | TGI (MDA-MB-435): 9.57 µM | GI50 (HCT-116 colon): 1.71 µM | TGI (HCT-116 colon): 5.93 µM | GI50 (HCT-15 colon): 1.24 µM | TGI (HCT-15 colon): > 38.6 µM | GI50 (BT-549 breast): 0.41 µM | TGI (BT-549 breast): 4.51 µM | GI50 (SF-539 CNS): 1.31 µM | TGI (SF-539 CNS): 5.98 µM | GI50 (HOP-62 NSCLC): 1.09 µM | TGI (HOP-62 NSCLC): 9.82 µM | GI50 (NCI-H522 lung): 2.2 µM | TGI (NCI-H522 lung): 10.5 µM | GI50 (SK-MEL-2 melanoma): 1.12 µM | TGI (SK-MEL-2 melanoma): 2.95 µM | GI50 (MCF7 breast): 0.64 µM | TGI (MCF7 breast): > 35.3 µM | GI50 (NCI-H226 lung): 1.53 µM | TGI (NCI-H226 lung): 16.6 µM | GI50 (SF-295 CNS): 1.08 µM | TGI (SF-295 CNS): > 23.1 µM | GI50 (SK-OV-3 ovarian): 1.21 µM | TGI (SK-OV-3 ovarian): 5.72 µM | GI50 (OVCAR-8 ovarian): 1.72 µM | TGI (OVCAR-8 ovarian): 11.6 µM | GI50 (T-47D breast): 0.446 µM | GI50 (KM12 colon): 1.75 µM | TGI (KM12 colon): 8.64 µM | GI50 (SW-620 colon): 2.62 µM | TGI (SW-620 colon): 12.2 µM | GI50 (U251 CNS): 1.55 µM | TGI (U251 CNS): 11.2 µM | GI50 (UACC-62 melanoma): 1.08 µM | TGI (UACC-62 melanoma): 4.53 µM | GI50 (SK-MEL-28 melanoma): 1.59 µM | TGI (SK-MEL-28 melanoma): 8.97 µM | GI50 (TK-10 renal): 0.206 µM | TGI (TK-10 renal): 1.86 µM | GI50 (UACC-257 melanoma): 2.11 µM | TGI (UACC-257 melanoma): 10.5 µM | GI50 (OVCAR-4 ovarian): 0.527 µM | TGI (OVCAR-4 ovarian): 4.76 µM | GI50 (NCI-H23 lung): 1.7 µM | TGI (NCI-H23 lung): 11 µM | GI50 (M14 melanoma): 1.56 µM | TGI (M14 melanoma): 11.2 µM | GI50 (RXF 393 renal): 0.559 µM | TGI (RXF 393 renal): 3.9 µM | GI50 (MOLT-4 leukemia): 0.87 µM | TGI (MOLT-4 leukemia): 6.14 µM | GI50 (786-0 renal): 1.36 µM | TGI (786-0 renal): 10.2 µM | GI50 (A549 NSCLC): 1.03 µM | TGI (A549 NSCLC): 11.7 µM | GI50 (HL-60(TB) leukemia): 2.46 µM | TGI (HL-60(TB) leukemia): > 39.5 µM | GI50 (CCRF-CEM leukemia): 1 µM | TGI (CCRF-CEM leukemia): 40.2 µM | GI50 (HOP-92 NSCLC): 0.138 µM | TGI (HOP-92 NSCLC): 0.827 µM | GI50 (HT29 colon): 1.63 µM | TGI (HT29 colon): 13.9 µM | GI50 (OVCAR-5 ovarian): 0.787 µM | TGI (OVCAR-5 ovarian): 13.6 µM | GI50 (DU-145 prostate): 0.796 µM | TGI (DU-145 prostate): 13.3 µM | GI50 (SN12C renal): 0.765 µM | TGI (SN12C renal): 14.8 µM | GI50 (K-562 leukemia): 2.16 µM | TGI (K-562 leukemia): > 100 µM | GI50 (ACHN renal): 0.785 µM | TGI (ACHN renal): 13.2 µM | GI50 (SNB-75 CNS): 0.258 µM | TGI (SNB-75 CNS): 2.45 µM | GI50 (HCC-2998 colon): 2 µM | TGI (HCC-2998 colon): 13.6 µM | GI50 (MALME-3M melanoma): 0.527 µM | TGI (MALME-3M melanoma): 3.79 µM | GI50 (LOX IMVI melanoma): 0.915 µM | TGI (LOX IMVI melanoma): 5.85 µM | GI50 (PC-3 prostate): 0.72 µM | TGI (PC-3 prostate): 10.6 µM | GI50 (CAKI-1 renal): 0.441 µM | TGI (CAKI-1 renal): 4.28 µM | GI50 (SF-268 CNS): 1.24 µM | TGI (SF-268 CNS): 8.79 µM | GI50 (COLO 205 colon): 1.78 µM | TGI (COLO 205 colon): 6.82 µM | GI50 (NCI-H460 lung): 0.987 µM | TGI (NCI-H460 lung): 11.6 µM | GI50 (SR leukemia): 0.741 µM | TGI (SR leukemia): > 43.4 µM | GI50 (MDA-MB-231 breast): 0.85 µM | TGI (MDA-MB-231 breast): 16.8 µM | GI50 (RPMI-8226 leukemia): 0.382 µM | TGI (RPMI-8226 leukemia): 2.96 µM | GI50 (A498 renal): 0.199 µM | TGI (A498 renal): 1.04 µM | GI50 (NCI/ADR-RES ovarian): 2.34 µM | TGI (NCI/ADR-RES ovarian): 28.3 µM
